Here are results for 20 compounds from patent publication US20230002324A1, “NAPHTHOQUINONE DERIVATIVES FOR TREATMENT OF OXIDATIVE STRESS DISORDERS” (PTC THERAPEUTICS, INC., priority 2019, published 2023).

The test system of data set [1] is Q7 cells (ST HDH Q7/7; immortalized mouse striatal cells). Description: Q7 Cystine Deprivation cell survival (rescue) assay. To be noted: Q7 cells, cystine-free medium, 18 h, Cell Titer Glo, 50% relative viability vs Vitamin K2 (1 micromolar), read-out: Q7 Cystine Deprivation Survival EC50. Type of data set: cell-based. Summed up: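 Cells were seeded at 3,000/well and allowed to attach for 5 h at 33 °C. Wells were then washed twice with PBS and switched to cystine-free DMEM containing FBS, 4 mM L-glutamine, 1 mM pyruvate and 30 mg/L methionine to induce ferroptotic death. Compounds were scored for survival rescue.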
(In general: In ATP-based viability assays light output follows the ATP content of the culture.)

Data set [2] shares this test system. Description: Q7 RSL3 challenge cell survival (rescue) assay. The class given is cell-based. The note with it: Q7 cells, RSL3 2 micromolar, 18 h, Cell Titer Glo, read-out: Q7 RSL3 Survival EC50. From the text:
In neuronal cells excess extracellular glutamate inhibits the cystine/glutamate antiporter leading to intracellular cysteine depletion, GSH depletion, reactive oxygen species (ROS) production and cell death, a phenomenon termed oxidative glutamate toxicity, oxytosis, or ferroptosis. […] Q7 cells (ST HDH Q7/7; immortalized mouse striatal cells) challenged with cystine-free media or the selective, irreversible GPX4 inhibitor, methyl (1S,3R)-2-(2-chloroacetyl)-1-(4-(methoxycarbonyl)phenyl)-2,3,4,9-tetrahydro-1H-pyrido[3,4-b]indole-3-carboxylate (hereafter referred to as RSL3), recapitulate this phenotype, as do normal human fibroblasts (NHF) challenged with RSL3. An initial screen was performed to identify compounds effective in rescuing Q7 and/or NHF cells from death resulting from cystine deprivation or RSL3 challenge. This method is further described in Yonezawa et al., J. Neurochem 67, 566-573 (1996), Li et al., J Neurosci., 23, 5816-5826 (2003), Yang and Stockwell, Chem Biol., 15: 234-45 (2008), and Yang et al., Cell 156, 317-331 (2014). See also Hinman A, Holst C R, Latham J C, et al. Vitamin E hydroquinone is an endogenous regulator of ferroptosis via redox control of 15-lipoxygenase. PLoS One. 2018; 13(8):e0201369. Published 2018 Aug. 15. doi:10.1371/journal.pone.0201369; and Kahn-Kirby A H, Amagata A, Maeder C I, et al. Targeting ferroptosis: A novel therapeutic strategy for the treatment of mitochondrial disease-related epilepsy. PLoS One. 2019; 14(3):e0214250. Published 2019 Mar. 28. doi:10.1371/journal.pone.0214250.
DMEM (Catalog no. 11995-040), DMEM without Cystine (Catalog no. 21013-024), DMEM without Glucose (Catalog A1443001), PBS (Phosphate buffered saline), Penicillin-streptomycin mix, L-Glutamine, Glucose, Phenol Red, and Pyruvate were purchased from ThermoFisher Scientific (Gibco). Fetal Bovine Serum was obtained from Mediatech, Inc., or Sigma Aldrich. Mouse striatum derived ST HDH Q7/7 (Q7) and normal human skin fibroblast (NHF, product number GM21811) cells were obtained from the Coriell Institute. Methionine and Vitamin K2 were purchased from Sigma Aldrich. RSL3 was synthesized as previously described (see e.g. US Patent Publication US2010/0081654). Cell Titer Glo 2.0 was purchased from Promega. Q7 cell culture medium (Q7 growth medium) was made by combining 50 mL Fetal Bovine Serum, 100 U/mL penicillin, and 100 microgram/mL streptomycin; DMEM was added to make the volume up to 500 mL. Assay medium for the Cystine Deprivation assay was prepared by combining 50 mL Fetal Bovine Serum, 100 U/mL penicillin, 100 microgram/mL streptomycin, 4 mM L-Glutamine, 1 mM Pyruvate and 30 mg/L Methionine; DMEM without Cystine was added to make the volume up to 500 mL. NHF cell culture medium (NHF growth medium) was made by combining 50 mL Fetal Bovine Serum, 100 U/mL penicillin, 100 microgram/mL streptomycin, 2.8 mL 20% Glucose solution (final concentration 6 mM), L-glutamine (final concentration 2 mM), phenol red (final concentration 15 mg/L); DMEM without Glucose was added to make the volume up to 500 mL. Assay medium for the RSL3 challenge assay was identical to Growth medium. While not in use during the course of the experiments, these solutions were stored at 4° C. The cells were grown in 150-cm^2 tissue culture-treated flasks. Every third or fourth day, the cells were sub-cultured by trypsinization and re-seeded at a cell density of 600,000 (Q7) or 300,000 (NHF) cells per flask.
Q7 or NHF cells were cultured routinely as described herein. For 384-well cell survival assays, cells were seeded in clear bottom, black wall 384-well tissue culture-treated polystyrene plates by re-suspending a cell suspension at a density of 50,000 cells/mL in growth medium, then dispensing 60 microliters of cell suspension per well using either an electronic multichannel pipette or a Multidrop™ Combi Reagent Dispenser (ThermoFisher Scientific), corresponding to 3,000 cells/well. […]

In data set [3] the test system is normal human fibroblasts (NHF, GM21811). Description: NHF GM21811 RSL3 challenge cell survival (rescue) assay. Type of data set: cell-based. The note with it: Fibroblast, NHF cells, RSL3 2 micromolar, 48 h, Cell Titer Glo, read-out: NHF GM21811 RSL3 Survival EC50. Summed up:
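Q7 (33° C.) or NHF (37° C.) cells, 3,000/well, attached 5 h, then test compounds at varying final concentrations followed within 15 min by RSL3 (2 micromolar final); 0.3% DMSO. Assay medium identical to growth medium.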

The target in a further data set is T1, CYP3A4 (Homo sapiens, UniProt P08684).
T1 construct: from tissue; host or cells: pooled human liver microsomes
T1 sequence (P08684 whole entry): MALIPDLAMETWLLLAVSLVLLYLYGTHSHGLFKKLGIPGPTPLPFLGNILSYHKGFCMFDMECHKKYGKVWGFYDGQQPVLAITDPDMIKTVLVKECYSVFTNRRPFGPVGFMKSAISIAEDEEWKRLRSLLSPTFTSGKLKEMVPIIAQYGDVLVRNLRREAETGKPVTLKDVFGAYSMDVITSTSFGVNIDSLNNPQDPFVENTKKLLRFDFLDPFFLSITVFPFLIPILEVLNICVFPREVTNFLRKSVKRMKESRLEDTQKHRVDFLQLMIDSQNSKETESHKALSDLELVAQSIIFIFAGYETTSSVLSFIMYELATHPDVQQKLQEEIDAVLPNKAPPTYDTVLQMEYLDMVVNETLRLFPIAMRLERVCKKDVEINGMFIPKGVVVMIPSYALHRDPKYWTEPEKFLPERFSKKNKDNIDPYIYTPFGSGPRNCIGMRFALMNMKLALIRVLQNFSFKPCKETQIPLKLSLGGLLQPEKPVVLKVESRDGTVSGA
Nature of the data set: CYP450 Inhibition Assay 2 (pooled human liver microsomes, 5 concentrations). To be noted: Table 3, HLM 0.05 mg protein/mL, 10 min reaction. The class given is in vitro ADME. How it is done: In an alternative experimental design, test compounds were evaluated at 5 concentrations in a 96 well assay plate. Initial combination with pooled human liver microsomes (0.05 mg protein/mL) was followed by a 5 minute incubation. […] The assay plate was incubated for an additional 30 minutes before the reaction was initiated with the addition of NADPH. After 10 minutes of reaction time, the reaction was quenched and samples were analyzed in a similar manner as described above.
For orientation: Liver microsomes are vesicles of endoplasmic reticulum, rich in cytochrome P450 enzymes.

Each structure is given as a SMILES string.

What is called EC50 is the concentration giving half of the maximal effect. As a reminder, the IC50 is the concentration at which inhibition is half-maximal.

In the case of `CC1=C(Cc2ccc(F)cn2)C(=O)c2ccccc2C1=O` [Example 6, 2-((5-fluoropyridin-2-yl)methyl)-3-methylnaphthalene-1,4-dione], the EC50 in data set [1], in data set [2] and in data set [3] was under 50 nM in each case.
In the case of `CC1=C(Cc2cc(C(F)(F)F)ccn2)C(=O)c2ccccc2C1=O` [Example 9, 2-methyl-3-((4-(trifluoromethyl)pyridin-2-yl)methyl)naphthalene-1,4-dione], the IC50 on CYP3A4 was determined as 37.2 µM. In data set [1], the concentration for a half-maximal effect (EC50) is under 50 nM.
With `CC1=C(Cc2ccc(C(F)F)cn2)C(=O)c2ccccc2C1=O` [Example 20, 2-((5-(difluoromethyl)pyridin-2-yl)methyl)-3-methylnaphthalene-1,4-dione], the EC50 in data set [1], in data set [2] and in data set [3] was under 50 nM throughout.
With `CC1=C(C(C)c2ccccn2)C(=O)c2ccccc2C1=O` (centres unmarked) [Example 24, 2-methyl-3-(1-(pyridin-2-yl)ethyl)naphthalene-1,4-dione], the IC50 on CYP3A4 was determined as 20.1 µM. The EC50 in data set [1] was under 50 nM.
For the compound `O=C1C(Cc2ccc(C(F)(F)F)cn2)=C(C2CC2)C(=O)c2ccccc21` [Example 27, 2-cyclopropyl-3-((5-(trifluoromethyl)pyridin-2-yl)methyl)naphthalene-1,4-dione], the IC50 on CYP3A4 was determined as 11.9 µM. For the same compound, the EC50 in data set [1] is under 50 nM.
As for `CC(C)(C)CC1=C(Cc2ccc(C(F)(F)F)cn2)C(=O)c2ccccc2C1=O` [Example 28, 2-neopentyl-3-((5-(trifluoromethyl)pyridin-2-yl)methyl)naphthalene-1,4-dione], the IC50 at 10 min at CYP3A4 (human, pooled human liver microsomes) was at least 50 µM. Further, in data set [1], the EC50 fell in the range of 50 to 250 nM.
With `CC(C)CC1=C(Cc2ccc(C(F)(F)F)cn2)C(=O)c2ccccc2C1=O` [Example 29, 2-isobutyl-3-((5-(trifluoromethyl)pyridin-2-yl)methyl)naphthalene-1,4-dione], at CYP3A4, the IC50 amounted to 21.4 µM. In data set [1], the EC50 is under 50 nM.
In the same order, the values of `CC1(C2=C(Cc3ccc(C(F)(F)F)cn3)C(=O)c3ccccc3C2=O)CC1` [Example 31, 2-(1-methylcyclopropyl)-3-((5-(trifluoromethyl)pyridin-2-yl)methyl)naphthalene-1,4-dione] are 17.4 µM and under 50 nM.
Take `CC1(CCC2=C(Cc3ccc(C(F)(F)F)cn3)C(=O)c3ccccc3C2=O)COC1` [Example 32, 2-(2-(3-methyloxetan-3-yl)ethyl)-3-((5-(trifluoromethyl)pyridin-2-yl)methyl)naphthalene-1,4-dione]: the figures for the EC50 in data set [1], in data set [2] and in data set [3] were under 50 nM, under 50 nM and 50 to 250 nM, respectively.
In the case of `O=C1C(CCC2COC2)=C(Cc2ccc(C(F)(F)F)cn2)C(=O)c2ccccc21` [Example 33, 2-(2-(oxetan-3-yl)ethyl)-3-((5-(trifluoromethyl)pyridin-2-yl)methyl)naphthalene-1,4-dione], the EC50 was under 50 nM in data set [1], under 50 nM in data set [2] and 50 to 250 nM in data set [3].
For the compound `O=C1C(Cc2ccc(F)cn2)=C(C2CC2)C(=O)c2ccccc21` [Example 35, 2-cyclopropyl-3-((5-fluoropyridin-2-yl)methyl)naphthalene-1,4-dione], the EC50 in data set [1], in data set [2] and in data set [3] was under 50 nM each time.
As to `CC1=C(Cc2ccc(F)cn2)C(=O)c2ccc(F)cc2C1=O` [Example 48, 6-fluoro-2-((5-fluoropyridin-2-yl)methyl)-3-methylnaphthalene-1,4-dione], the EC50 in data set [1], in data set [2] and in data set [3] was under 50 nM in each case.
Consider `CC1=C(Cc2ccc(C(F)(F)F)cn2)C(=O)c2c(F)cccc2C1=O` [Example 51, 5-fluoro-2-methyl-3-((5-(trifluoromethyl)pyridin-2-yl)methyl)naphthalene-1,4-dione], for which the EC50 in data set [1], in data set [2] and in data set [3] was under 50 nM each time.
As to `CC1=C(Cc2ccc(C(F)(F)F)cn2)C(=O)c2c(F)ccc(F)c2C1=O` [Example 52, 5,8-difluoro-2-methyl-3-((5-(trifluoromethyl)pyridin-2-yl)methyl)naphthalene-1,4-dione], the EC50 in data set [1], in data set [2] and in data set [3] was under 50 nM throughout.
Turning to `CCC1=C(Cc2ccc(F)cn2)C(=O)c2c(F)ccc(F)c2C1=O` [Example 88, 2-ethyl-5,8-difluoro-3-((5-fluoropyridin-2-yl)methyl)naphthalene-1,4-dione], the EC50 in data set [2] and in data set [3] was under 50 nM throughout.
Turning to `CCCC1=C(Cc2cc(C)c(F)cn2)C(=O)c2ccccc2C1=O` [Example 113, 2-((5-fluoro-4-methylpyridin-2-yl)methyl)-3-propylnaphthalene-1,4-dione], the EC50 in data set [1], in data set [2] and in data set [3] was under 50 nM in each case.
Regarding `CCCC1=C(Cc2ccc(F)cn2)C(=O)c2ccccc2C1=O` [Example 116, 2-((5-fluoropyridin-2-yl)methyl)-3-propylnaphthalene-1,4-dione], the EC50 in data set [1], in data set [2] and in data set [3] was under 50 nM each time.
Consider `CCCC1=C(Cc2ccc(F)c(C)n2)C(=O)c2ccccc2C1=O` [Example 118, 2-((5-fluoro-6-methylpyridin-2-yl)methyl)-3-propylnaphthalene-1,4-dione], for which the EC50 in data set [1], in data set [2] and in data set [3] was under 50 nM throughout.
With `Cc1cc(CC2=C(C3CC3)C(=O)c3ccccc3C2=O)ncc1F` [Example 120, 2-cyclopropyl-3-((5-fluoro-4-methylpyridin-2-yl)methyl)naphthalene-1,4-dione], the EC50 in data set [1], in data set [2] and in data set [3] was under 50 nM in each case.
With `Cc1ccc(CC2=C(CCC3COC3)C(=O)c3ccccc3C2=O)nc1` [Example 122, 2-((5-methylpyridin-2-yl)methyl)-3-(2-(oxetan-3-yl)ethyl)naphthalene-1,4-dione], the results for the EC50 in data set [1], in data set [2] and in data set [3] were under 50 nM, under 50 nM and 50 to 250 nM, respectively.
